Assay results published in patent publication US6599893B2, “Cephalosporin antibiotics and prodrugs thereof” (Essential Therapeutics, Inc., priority 2000, dated 2003).
≈ marks a conversion by molar mass, not a printed value.

Assays:
Type in all cases: cell-based
[1] = test system: Staphylococcus aureus Smith (MSSA); test: Broth microdilution MIC, S. aureus Smith; settings: Staphylococcus aureus Smith (MSSA); for MIC: read-out: MIC S. a. Smith
Procedure: (§1) Compounds were evaluated for antimicrobial activity against a panel of bacterial strains using a broth microdilution assay performed as recommended by the NCCLS (NCCLS (National Committee for Clinical Laboratory Standards). 1993. Methods for dilution antimicrobial susceptibility tests for bacteria that grow aerobically. NCCLS Document M7-A3, 1993. In: NCCLS Antimicrobial Susceptibility Testing, 3rd Ed.)
(§2) The minimum inhibitory concentration (MIC) is defined as the lowest concentration of a compound that prevents the growth of the bacteria.

[2] = test system: Enterococcus faecium ATCC 35667; test: Broth microdilution MIC, E. faecium ATCC 35667; settings: Enterococcus faecium ATCC 35667; for MIC: ATCC35667, read-out: MIC E. f. 35667
Procedure: as §1, §2

[3] = test system: Enterococcus faecalis ATCC 29212; test: Broth microdilution MIC, E. faecalis ATCC 29212; settings: Enterococcus faecalis ATCC 29212; for MIC: ATCC29212, read-out: MIC E. f. 29212
Procedure: as §1, §2

[4] = test system: Staphylococcus aureus 76 (MRSA, β-lactamase producing); test: Broth microdilution MIC, S. aureus 76; settings: Staphylococcus aureus 76 (MRSA, β-lactamase producing); for MIC: read-out: MIC S. a. 76
Procedure: as §1, §2

[5] = test system: Staphylococcus aureus ATCC 29213 (MSSA); test: Broth microdilution MIC, S. aureus ATCC 29213; settings: Staphylococcus aureus ATCC 29213 (MSSA); for MIC: read-out: MIC S. a. 29213
Procedure: as §1, §2

[6] = test system: Staphylococcus aureus COL (MRSA, non-β-lactamase producing); test: Broth microdilution MIC, S. aureus COL; settings: Staphylococcus aureus COL (MRSA, non-β-lactamase producing); for MIC: read-out: MIC S. a. COL
Procedure: as §1, §2

Compound	MIC S. a. Smith [1] [µg/mL]	MIC E. f. 35667 [2] [µg/mL]	MIC E. f. 29212 [3] [µg/mL]	MIC S. a. 76 [4] [µg/mL]	MIC S. a. 29213 [5] [µg/mL]	MIC S. a. COL [6] [µg/mL]	MIC [2] [µg/mL]	MIC [3] [µg/mL]	MIC [4] [µg/mL]	MIC [5] [µg/mL]	MIC [6] [µg/mL]	MIC [1] [µg/mL]
Cn1ccnc1SC1=C(C(=O)O)N2C(=O)[C@@H](NC(=O)/C(=N\O)c3nc(N)sc3Cl)[C@H]2SC1 [Compound 31]	0.125 (≈ 0.242 µM)	16 (≈ 31 µM)	1 (≈ 1.94 µM)	32 (≈ 62 µM)	0.5 (≈ 0.969 µM)	16 (≈ 31 µM)						
Nc1nc(C(=NO)C(=O)N[C@@H]2C(=O)N3C(C(=O)O)=C(Sc4nc(Cl)ns4)CSC23)c(Cl)s1 (stereo partly drawn) [Compound 52, (7R)-7-[2-(2-Amino-5-chlorothiazol-4-yl)-2-hydroxyiminoacetylamino]-3-(3-chloro-[1,2,4]thiadiazol-5-ylsulfanyl)-8-oxo-5-thia-1-aza-bicyclo[4.2.0]oct-2-ene-2-carboxylic acid]							1 (≈ 1.8 µM)	0.25 (≈ 0.451 µM)	2 (≈ 3.61 µM)	0.25 (≈ 0.451 µM)	1 (≈ 1.8 µM)	
Nc1nc(C(=NO)C(=O)N[C@@H]2C(=O)N3C(C(=O)O)=C(Sc4nncs4)CSC23)ns1 (stereo partly drawn) [Compound 50, (7R)-7-[2-(5-Amino-[1,2,4]thiadiazol-3-yl)-2-hydroxyiminoacetylamino]-8-oxo-3-([1,3,4]thiadiazol-2-ylsulfanyl)-5-thia-1-aza-bicyclo [4.2.0]oct-2-ene-2-carboxylic acid]							2 (≈ 4.11 µM)	1 (≈ 2.06 µM)	8 (≈ 16.4 µM)	0.25 (≈ 0.514 µM)	4 (≈ 8.22 µM)	
CC(C)(C)O/N=C(\C(=O)N[C@@H]1C(=O)N2C(C(=O)O)=C(Sc3ccnn3-c3ccccc3)CS[C@H]12)c1csc(N)n1 [Compound 18]							16 (≈ 26.7 µM)	2 (≈ 3.33 µM)	16 (≈ 26.7 µM)	1 (≈ 1.67 µM)	8 (≈ 13.3 µM)	1 (≈ 1.67 µM)
CON=C(C(=O)NC1C(=O)N2C(C(=O)O)=C(Sc3ccc(Br)cc3)CSC12)c1csc(N)n1 (stereo not shown) [Compound 6]		16 (≈ 28 µM)	16 (≈ 28 µM)	32 (≈ 56.1 µM)	<0.015							
Nc1nc(/C(=N/OC2CCCC2)C(=O)N[C@@H]2C(=O)N3C(C(=O)O)=C(Sc4ccccc4I)CS[C@H]23)cs1 [Compound 9]		2 (≈ 2.98 µM)	2 (≈ 2.98 µM)	2 (≈ 2.98 µM)	<0.25	1 (≈ 1.49 µM)						
Nc1nsc(SC2=C(C(=O)O)N3C(=O)[C@@H](NC(=O)C(=NO)c4nc(N)sc4Cl)C3SC2)n1 (stereo partly drawn) [Compound 47, (7R)-7-[2-(2-Amino-5-chlorothiazol-4-yl)-2-hydroxyiminoacetylamino]-3-(3-amino-[1,2,4]thiadiazol-5-ylsulfanyl)-8-oxo-5-thia-1-aza-bicyclo[4.2.0]oct-2-ene-2-carboxylic acid]							0.5 (≈ 0.935 µM)	0.125 (≈ 0.234 µM)	1 (≈ 1.87 µM)	0.125 (≈ 0.234 µM)	0.5 (≈ 0.935 µM)	0.25 (≈ 0.467 µM)
Nc1nc(C(=NO)C(=O)N[C@@H]2C(=O)N3C(C(=O)O)=C(Sc4nnc(N)s4)CSC23)cs1 (stereo partly drawn) [Compound 49, 3-(5-Amino-[1,3,4]thiadiazol-2-ylsulfanyl)-(7R)-7-[2-(2-aminothiazol-4-yl)-2-hydroxyiminoacetylamino]-8-oxo-5-thia-1-aza-bicyclo[4.2.0]oct-2-ene-2-carboxylic acid]							1 (≈ 2 µM)	0.5 (≈ 0.999 µM)	8 (≈ 16 µM)	0.25 (≈ 0.499 µM)	4 (≈ 7.99 µM)	
C=CCO/N=C(\C(=O)N[C@@H]1C(=O)N2C(C(=O)O)=C(Sc3ccnn3-c3ccccc3)CS[C@H]12)c1csc(N)n1 [Compound 20]							32 (≈ 54.8 µM)	32 (≈ 54.8 µM)	16 (≈ 27.4 µM)	1 (≈ 1.71 µM)	8 (≈ 13.7 µM)	0.5 (≈ 0.857 µM)
Nc1nc(C(=NO)C(=O)N[C@@H]2C(=O)N3C(C(=O)O)=C(Sc4nnco4)CSC23)c(Cl)s1 (stereo partly drawn) [Compound 48, (7R)-7-[2-(2-Amino-5-chlorothiazol-4-yl)-2-hydroxyiminoacetylamino]-3-([1,3,4]oxadiazol-2-ylsulfanyl)-8-oxo-5-thia-1-aza-bicyclo[4.2.0]oct-2-ene-2-carboxylic acid]							1 (≈ 1.98 µM)	0.25 (≈ 0.496 µM)	2 (≈ 3.97 µM)	0.25 (≈ 0.496 µM)	2 (≈ 3.97 µM)	
CON=C(C(=O)NC1C(=O)N2C(C(=O)O)=C(Sc3ccccc3I)CSC12)c1csc(N)n1 (stereo not shown) [Compound 8]		32 (≈ 51.8 µM)		32 (≈ 51.8 µM)	1 (≈ 1.62 µM)	32 (≈ 51.8 µM)						
N#Cc1ccccc1SC1=C(C(=O)O)N2C(=O)[C@@H](NC(=O)/C(=N\OC3CCCC3)c3csc(N)n3)[C@H]2SC1 [Compound 12]		8 (≈ 14 µM)	8 (≈ 14 µM)	8 (≈ 14 µM)	1 (≈ 1.75 µM)	4 (≈ 7.01 µM)						
Nc1nc(C(=NO)C(=O)NC2C(=O)N3C(C(=O)O)=C(Sc4ccccc4I)CSC23)cs1 (stereo not shown) [Compound 7]		2 (≈ 3.31 µM)		4 (≈ 6.63 µM)	<0.25	2 (≈ 3.31 µM)						
Nc1nc(CC(=O)N[C@@H]2C(=O)N3C(C(=O)O)=C(Sc4nnc(N)s4)CSC23)cs1 (stereo partly drawn) [Compound 51, 3-(5-Amino-[1,3,4]thiadiazol-2-ylsulfanyl)-(7R)-7-[2-(2-amino-thiazol-4-yl)-acetylamino]-8-oxo-5-thia-1-aza-bicyclo[4.2.0]oct-2-ene-2-carboxylic acid]							4 (≈ 8.48 µM)	2 (≈ 4.24 µM)	16 (≈ 33.9 µM)	0.125 (≈ 0.265 µM)	4 (≈ 8.48 µM)	0.06 (≈ 0.127 µM)
CSc1nnc(SC2=C(C(=O)O)N3C(=O)[C@@H](NC(=O)C(=NO)c4nc(N)sc4Cl)C3SC2)s1 (stereo partly drawn) [Compound 44, (7R)-7-[2-(2-Amino-5-chlorothiazol-4-yl)-2-hydroxyiminoacetylamino]-3-(5-methylsulfanyl-[1,3,4]thiadiazol-2-ylsulfanyl)-8-oxo-5-thia-1-aza-bicyclo[4.2.0]oct-2-ene-2-carboxylic acid]							1 (≈ 1.77 µM)	0.25 (≈ 0.442 µM)	1 (≈ 1.77 µM)	0.25 (≈ 0.442 µM)	1 (≈ 1.77 µM)	
Nc1nc(C(=NO)C(=O)NC2C(=O)N3C(C(=O)O)=C(Sc4ccccc4-c4ccccc4)CSC23)cs1 (stereo not shown) [Compound 10]		2 (≈ 3.61 µM)	2 (≈ 3.61 µM)	8 (≈ 14.4 µM)	0.5 (≈ 0.903 µM)	4 (≈ 7.22 µM)						
Cc1noc(SC2=C(C(=O)O)N3C(=O)[C@@H](NC(=O)C(=NO)c4nc(N)sc4Cl)C3SC2)n1 (stereo partly drawn) [Compound 45, (7R)-7-[2-(2-Amino-5-chlorothiazol-4-yl)-2-hydroxyiminoacetylamino]-3-(3-methyl-[1,2,4]oxadiazol-5-ylsulfanyl)-8-oxo-5-thia-1-aza-bicyclo[4.2.0]oct-2-ene-2-carboxylic acid]							0.5 (≈ 0.965 µM)	0.125 (≈ 0.241 µM)	4 (≈ 7.72 µM)	0.5 (≈ 0.965 µM)	4 (≈ 7.72 µM)	1 (≈ 1.93 µM)
Nc1nc(/C(=N/OCCF)C(=O)N[C@@H]2C(=O)N3C(C(=O)O)=C(Sc4ccnn4-c4ccccc4)CS[C@H]23)cs1 [Compound 14]							16 (≈ 27.1 µM)	32 (≈ 54.3 µM)	16 (≈ 27.1 µM)	1 (≈ 1.7 µM)	8 (≈ 13.6 µM)	
CON=C(C(=O)NC1C(=O)N2C(C(=O)O)=C(Sc3ccccc3Br)CSC12)c1csc(N)n1 (stereo not shown) [Compound 5]		32 (≈ 56.1 µM)	>32	16 (≈ 28 µM)	0.5 (≈ 0.876 µM)	16 (≈ 28 µM)						
Nc1nc(/C(=N/O)C(=O)N[C@@H]2C(=O)N3C(C(=O)O)=C(Sc4ccnn4-c4ccccc4)CS[C@H]23)cs1 [Compound 15]							8 (≈ 14.7 µM)	2 (≈ 3.68 µM)	32 (≈ 58.9 µM)	1 (≈ 1.84 µM)	16 (≈ 29.4 µM)	
